In patent US9206132B2, “Use of a novel aminopyridine derivative to prevent or treat cancer” (Medicinal Bioconvergence Research Center, priority 2012, dated 2015):

How the values were obtained:
AIMP2-DX2 [1] = assay: AIMP2-DX2 luciferase assay in pGL2-DX2 transfected H460 lung cancer cells; details: H460 transfected with pGL-DX-2, cultured 24 hours, 4 hours treatment, lower = more inhibition, N.C (DMSO) 8627
Method: (§1) After 24 hours in culture, transfected lung cancer cells were treated with the compounds of the library. 4 hours later, luciferase activity was measured with a luminometer using a luciferase assay kit according to a manufacturer protocol (Promega, US).
(§2) Lung cancer cell lines A549 and H460 were transfected with pGL-DX-2, cultured for 24 hours, and treated with the newly synthesized compounds. After further culturing for 4 hours, luciferase activity was measured.

AIMP2-DX2 [2] = assay: AIMP2-DX2 luciferase assay in pGL-DX-2 transfected A549 lung cancer cells; details: A549 transfected with pGL-DX-2, cultured 24 hours, 4 hours treatment, lower = more inhibition, N.C (DMSO) 20089
Method: as §1, §2

Question: What does the source list for `CCOC(=O)CC(=O)Nc1nc(C)ccc1C` [No. 4, ethyl 3-[(3,6-dimethylpyridin-2-yl)amino]-3-oxopropanoate]?
Answer: AIMP2-DX2 Activity in H460 cells (AIMP2-DX2 [1]): 4914; AIMP2-DX2 Activity in A549 cells (AIMP2-DX2 [2]): 18252

Question: With `CCOC(=O)C(C)C(=O)Nc1cnc2ccccc2c1` (stereo not shown) [No. 6, ethyl 2-methyl-3-oxo-3-(quinolin-3-ylamino)propanoate] as the compound, how does the “AIMP2-DX2 Activity in H460 cells” value (AIMP2-DX2 [1]) read?
Answer: 5083

Question: What about the “AIMP2-DX2 Activity in A549 cells” value (AIMP2-DX2 [2]) of the same compound?
Answer: 6011

Question: How did the “AIMP2-DX2 Activity in H460 cells” value (AIMP2-DX2 [1]) turn out when `CCOC(=O)C(C)C(=O)Nc1cccc(C)n1` (stereo not shown) [No. 7, ethyl 2-methyl-3-[(6-methylpyridin-2-yl)amino]-3-oxopropanoate] was run?
Answer: 6082

Question: What about the “AIMP2-DX2 Activity in A549 cells” value (AIMP2-DX2 [2]) of the same compound?
Answer: 6568

Question: For `CCOC(=O)CC(=O)Nc1ccc(Cl)cn1` [No. 8, ethyl 3-[(5-chloropyridin-2-yl)amino]-3-oxopropanoate], which “AIMP2-DX2 Activity in H460 cells” value (AIMP2-DX2 [1]) is on record?
Answer: 6348

Question: And the “AIMP2-DX2 Activity in A549 cells” value (AIMP2-DX2 [2])?
Answer: 8045

Question: How did the “AIMP2-DX2 Activity in H460 cells” value (AIMP2-DX2 [1]) turn out when `CCOC(=O)CC(=O)Nc1cccc(C)n1` [No. 2, ethyl 3-[(6-methylpyridin-2-yl)amino]-3-oxopropanoate] was run?
Answer: 7740

Question: What about the “AIMP2-DX2 Activity in A549 cells” value (AIMP2-DX2 [2]) of the same compound?
Answer: 8070

Question: What does the source list for `CCOC(=O)CC(=O)Nc1cnc2ccccc2c1` [No. 3, ethyl 3-oxo-3-(quinolin-3-ylamino)propanoate]?
Answer: AIMP2-DX2 Activity in H460 cells (AIMP2-DX2 [1]): 5447; AIMP2-DX2 Activity in A549 cells (AIMP2-DX2 [2]): 17967

Question: How did the “AIMP2-DX2 Activity in H460 cells” value (AIMP2-DX2 [1]) turn out when `CCOC(=O)C(C)C(=O)Nc1ccc(Cl)cn1` (stereo not shown) [No. 1, ethyl 3-[(5-chloropyridin-2-yl)amino]-2-methyl-3-oxopropanoate] was run?
Answer: 7668

Question: And the “AIMP2-DX2 Activity in A549 cells” value (AIMP2-DX2 [2])?
Answer: 5295

Question: With `CCOC(=O)CC(=O)Nc1cc(O)ccn1` [No. 5, ethyl 3-[(4-hydroxypyridin-2-yl)amino]-3-oxopropanoate] as the compound, how does the “AIMP2-DX2 Activity in H460 cells” value (AIMP2-DX2 [1]) read?
Answer: 4984

Question: What about the “AIMP2-DX2 Activity in A549 cells” value (AIMP2-DX2 [2]) of the same compound?
Answer: 5721
